Results published in ChEMBL document CHEMBL3232845 (Bioorg Med Chem Lett, 2014).

What was measured:
[1] = target: T1, Serine/threonine-protein kinase B-raf (Homo sapiens, UniProt P15056, V600E); experiment: Inhibition of B-Raf V600E mutant in human Malme-3M cells assessed as basal ERK phosphorylation; assay type: cell-based
[2] = target: T1, Serine/threonine-protein kinase B-raf; experiment: Inhibition of full-length B-Raf V600E mutant (unknown origin)
[3] = Apparent permeability of the compound from apical to basolateral direction in pig LLC-PK1 cells; assay type: ADME, cell-based, Sus scrofa
[4] = Oral bioavailability in mouse at 30 mg/kg; assay type: ADME, organism-based; conditions: in vivo
[5] = AUC in mouse at 30 mg/kg, po; assay type: ADME, organism-based; parameters: dose 30 mg/kg, route oral; conditions: plasma
[6] = Volume of distribution in mouse; assay type: ADME, organism-based; conditions: in vivo
[7] = Clearance in mouse at 2.5 mg/kg, iv; assay type: ADME, organism-based; parameters: dose 2.5 mg/kg, route intravenous; conditions: in vivo

T1 sequence (P15056 2-766 V600E limits assumed): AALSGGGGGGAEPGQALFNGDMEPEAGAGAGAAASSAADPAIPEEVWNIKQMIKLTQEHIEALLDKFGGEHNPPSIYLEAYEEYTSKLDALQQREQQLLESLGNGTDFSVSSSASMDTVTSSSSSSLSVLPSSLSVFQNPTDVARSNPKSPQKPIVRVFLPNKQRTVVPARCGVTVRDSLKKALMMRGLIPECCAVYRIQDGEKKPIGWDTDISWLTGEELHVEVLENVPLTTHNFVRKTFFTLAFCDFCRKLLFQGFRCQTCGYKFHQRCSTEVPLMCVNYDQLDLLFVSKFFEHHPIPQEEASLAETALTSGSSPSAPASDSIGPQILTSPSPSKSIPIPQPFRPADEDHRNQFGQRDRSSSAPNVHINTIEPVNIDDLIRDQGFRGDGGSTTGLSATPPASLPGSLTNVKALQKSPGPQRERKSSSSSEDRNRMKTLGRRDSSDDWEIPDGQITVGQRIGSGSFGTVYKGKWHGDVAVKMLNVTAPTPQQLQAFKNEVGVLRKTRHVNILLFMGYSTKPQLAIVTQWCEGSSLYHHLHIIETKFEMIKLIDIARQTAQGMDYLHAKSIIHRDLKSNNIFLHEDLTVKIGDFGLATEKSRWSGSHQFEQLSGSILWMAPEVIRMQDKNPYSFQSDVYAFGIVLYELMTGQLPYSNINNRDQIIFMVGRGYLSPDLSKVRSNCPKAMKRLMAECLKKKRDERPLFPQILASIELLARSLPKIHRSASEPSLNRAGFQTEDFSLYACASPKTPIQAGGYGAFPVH

| IC50 [1] [nM] | IC50 [2] [nM] | Structure (SMILES) | also measured |
| --- | --- | --- | --- |
| 110 | 26 | CCCS(=O)(=O)Nc1ccc(F)c(N(CC)c2ccc3ncn(C)c(=O)c3c2)c1F |  |
| 44 | 4 | CCCS(=O)(=O)Nc1ccc(F)c(Nc2ccc3ncncc3c2)c1Cl |  |
| 878 | 100 | CCCS(=O)(=O)Nc1ccc(F)c(Nc2ccc3ncnc(N(C)C)c3c2)c1Cl |  |
| 132 | 11 | CCCS(=O)(=O)Nc1ccc(F)c(Nc2ccc3ncnc(NC)c3c2)c1Cl |  |
| 6250 | 314 | CCCS(=O)(=O)Nc1ccc(F)c(Nc2ccc3ncccc3c2)c1F |  |
| 116 | 12 | CCCS(=O)(=O)Nc1ccc(Cl)c(Nc2ccc3ncn(C)c(=O)c3c2)c1F |  |
| 15 | 0.2 | CCCS(=O)(=O)Nc1ccc(Cl)c(Oc2ccc3ncn(C)c(=O)c3c2)c1C#N |  |
| 733 | 16 | CCCS(=O)(=O)Nc1ccc(F)c(Nc2ccc3ncnc(OC)c3c2)c1Cl |  |
| 18 | 2 | CCCS(=O)(=O)Nc1ccc(F)c(Nc2ccc3ncn(-c4cnn(C)c4)c(=O)c3c2)c1Cl |  |
| 7 | 0.3 | CCCS(=O)(=O)Nc1cccc(Oc2ccc3ncn(C)c(=O)c3c2)c1C#N |  |
| 26 | 2 | CCCS(=O)(=O)Nc1ccc(F)c(Nc2ccc3ncn(C)c(=O)c3c2)c1Cl | Papp A→B [3]: > 8 ×10⁻⁶ cm/s; bioavailability [4]: 112%; AUC [5]: 282 µM·h; Vd [6]: 0.49 L/kg; clearance [7]: 4.7 mL/min/kg |
| 581 | 17 | CCCS(=O)(=O)Nc1ccc(F)c(Nc2ccc3ncn(Cc4ccccc4)c(=O)c3c2)c1Cl |  |
|  | 851 | CCCS(=O)(=O)Nc1ccc(C)c(Nc2ccc3ncn(C)c(=O)c3c2)c1 |  |
| 603 | 30 | CCCS(=O)(=O)Nc1ccc(F)c(N(CC)c2ccc3ncn(C)c(=O)c3c2)c1Cl |  |
| 114 | 8 | CCCS(=O)(=O)Nc1ccc(F)c(N(C)c2ccc3ncn(C)c(=O)c3c2)c1Cl |  |
| 118 | 33 | CCCS(=O)(=O)Nc1ccc(F)c(Nc2ccc3ncncc3c2)c1F |  |
| 814 | 25 | CCCS(=O)(=O)Nc1ccc(F)c(Nc2ccc3nccnc3c2)c1Cl |  |
| 84 | 3 | CCCS(=O)(=O)Nc1ccc(Cl)c(N(C)c2ccc3ncn(C)c(=O)c3c2)c1F |  |
| 3 | 0.2 | CCCS(=O)(=O)Nc1ccc(F)c(Oc2ccc3ncn(C)c(=O)c3c2)c1C#N |  |
| 62 | 11 | CCCS(=O)(=O)Nc1ccc(F)c(N(C)c2ccc3ncn(C)c(=O)c3c2)c1F |  |
| 55 | 19 | CCCS(=O)(=O)Nc1ccc(F)c(Nc2ccc3ncn(C)c(=O)c3c2)c1F |  |
| 16 | 0.2 | CCCS(=O)(=O)Nc1ccc(Cl)c(Nc2ccc3ncn(C)c(=O)c3c2)c1C#N |  |
